We go through 36 molecules from BindingDB's records for doi:10.1016/j.bmcl.2011.11.077 (The Broad Institute Probe Development Center, 2011).

What is called EC50 is the midpoint of the concentration-response curve.

Molecules are shown by their SMILES.

Experiment [1] addresses T1, Hypoxia-inducible factor 1-alpha (Homo sapiens, UniProt Q16665). The experiment is described as follows: Activation of human HIF1alpha expressed in DFX-induced human U2OS cells incubated for 30 mins prior to DFX-induction measured after overnight incubation by luciferase reporter gene assay.
A short description of experiment [2]: Activation of human HIF1alpha expressed in human U2OS cells assessed as increase in VEGF expression by RT-PCR analysis.
A short description of experiment [3]: Activation of GFP-tagged HIF1alpha expressed in human U2OS cells assessed as HIF1alpha nuclear translocation by high content imaging assay.
Experiment [4] has as its target T1, Hypoxia-inducible factor 1-alpha. The experiment is described as follows: Activation of human HIF1alpha expressed in DFX-induced human U2OS cells incubated for 30 mins prior to DFX-induction measured after overnight incubation by luciferase reporter gene assay in presence of 50 uM iron.
Experiment [5] has the same target. The experiment in a line: Activation of human HIF1alpha expressed in DFX-induced human U2OS cells incubated for 30 mins prior to DFX-induction measured after overnight incubation by luciferase reporter gene assay in presence of 50 uM zinc.

T1 sequence (Q16665 whole entry): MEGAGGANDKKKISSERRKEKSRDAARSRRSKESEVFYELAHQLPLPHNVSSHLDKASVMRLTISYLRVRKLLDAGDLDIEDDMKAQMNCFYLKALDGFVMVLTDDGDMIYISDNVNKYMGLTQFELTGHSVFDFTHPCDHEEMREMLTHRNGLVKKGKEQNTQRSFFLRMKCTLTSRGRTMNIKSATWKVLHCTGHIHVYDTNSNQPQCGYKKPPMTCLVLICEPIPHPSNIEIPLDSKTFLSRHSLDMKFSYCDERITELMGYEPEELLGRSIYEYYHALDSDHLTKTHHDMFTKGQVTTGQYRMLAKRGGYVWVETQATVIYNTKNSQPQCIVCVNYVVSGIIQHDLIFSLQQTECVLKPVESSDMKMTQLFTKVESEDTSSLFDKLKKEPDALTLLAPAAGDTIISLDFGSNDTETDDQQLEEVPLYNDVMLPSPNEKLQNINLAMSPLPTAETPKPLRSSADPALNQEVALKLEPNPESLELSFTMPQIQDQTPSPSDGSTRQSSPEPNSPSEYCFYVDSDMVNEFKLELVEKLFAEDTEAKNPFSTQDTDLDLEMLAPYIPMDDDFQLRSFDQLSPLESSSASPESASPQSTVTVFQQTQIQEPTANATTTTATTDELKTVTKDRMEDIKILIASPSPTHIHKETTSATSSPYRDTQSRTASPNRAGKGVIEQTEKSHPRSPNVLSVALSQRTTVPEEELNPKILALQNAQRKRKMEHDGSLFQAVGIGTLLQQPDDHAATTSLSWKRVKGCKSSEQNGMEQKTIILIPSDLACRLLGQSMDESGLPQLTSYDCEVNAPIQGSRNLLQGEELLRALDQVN

`Cc1cccc(Nc2nc(-c3ccccn3)nnc2-c2ccccc2)n1`: the figures for the EC50 in experiment [1], in experiment [2] and in experiment [3] were 22.4 µM, 7.55 µM and 5.41 µM, respectively.

`c1ccc(-c2nnc(-c3ccccn3)nc2Nc2cnc3ccccc3n2)cc1`: the EC50 was found to be 7.64 µM in experiment [1], 3.26 µM in experiment [2] and 4.46 µM in experiment [3].

Regarding `Cc1ccccc1CNc1nc(-c2ccccn2)nnc1-c1ccccc1`, the EC50 worked out at 6.67 µM in experiment [1], 3.08 µM in experiment [2] and 9.54 µM in experiment [3].

Regarding `Cc1cccc(CNc2nc(-c3ccccn3)nnc2-c2ccccc2)c1`, the 50% effective concentration (EC50) came out at 5.41 µM in experiment [1], 2.91 µM in experiment [2] and 2.39 µM in experiment [3].

Consider `Cc1ccc(CNc2nc(-c3ccccn3)nnc2-c2ccccc2)cc1`, for which the EC50 in experiment [1] stood at 4.58 µM; in experiment [2] it was 2.6 µM; in experiment [3], 1.19 µM.

For `C[C@H](Nc1nc(-c2ccccn2)nnc1-c1ccccc1)C1CCCCC1`, the EC50 in experiment [1] was 4.17 µM; in experiment [2], 2.55 µM; in experiment [3], 2.06 µM.

Consider `C[C@@H](Nc1nc(-c2ccccn2)nnc1-c1ccccc1)C1CCCCC1`, for which the EC50 amounted to 6.73 µM in experiment [1], 1.88 µM in experiment [2] and 1.2 µM in experiment [3].

As to `c1ccc(-c2nnc(-c3ccccn3)nc2NCC2CCOCC2)cc1`, the EC50 amounted to 29.5 µM in experiment [1], 8.38 µM in experiment [2] and 7.67 µM in experiment [3].

For `c1ccc(CCNc2nc(-c3ccccn3)nnc2-c2ccccc2)cc1`, the results for the EC50 in experiment [1], in experiment [2] and in experiment [3] were 3.63 µM, 8.72 µM and 9.82 µM, respectively.

Consider `c1ccc(-c2nnc(-c3ccccn3)nc2NCCc2ccccn2)cc1`, for which the values for the EC50 in experiment [1], in experiment [2] and in experiment [3] were 17.5 µM, 9.6 µM and 9.84 µM, respectively.

On to `Cc1ccc(CNc2nc(-c3ccccn3)nnc2-c2ccccc2)cc1C`, for which the EC50 in experiment [1] was 2.96 µM; in experiment [2], 1.85 µM; in experiment [3], 2.3 µM.

For the molecule `Clc1cccc(CNc2nc(-c3ccccn3)nnc2-c2ccccc2)c1`, the EC50 in experiment [1] turned out to be 2.33 µM; in experiment [2] it was 2.77 µM; in experiment [3], 1.49 µM.

With `COc1ccc(CNc2nc(-c3ccccn3)nnc2-c2ccccc2)cc1`, the values for the EC50 in experiment [1], in experiment [2] and in experiment [3] were 4.74 µM, 3.67 µM and 3.73 µM, respectively.

In the case of `COc1cccc(CNc2nc(-c3ccccn3)nnc2-c2ccccc2)c1`, the values for the EC50 in experiment [1], in experiment [2] and in experiment [3] were 4.15 µM, 3.92 µM and 6.27 µM, respectively.

Turning to `CC(C)(C)c1ccc(CNc2nc(-c3ccccn3)nnc2-c2ccccc2)cc1`, the EC50 was determined as 1.71 µM in experiment [1], 1.12 µM in experiment [2] and 0.6 µM in experiment [3].

Turning to `c1ccc(-c2nnc(-c3ccccn3)nc2NCc2cccnc2)cc1`, the values for the EC50 in experiment [1], in experiment [2] and in experiment [3] were 26 µM, 4.35 µM and 5.02 µM, respectively.

As for `c1ccc(-c2nnc(-c3ccccn3)nc2NCc2ccccn2)cc1`, the EC50 in experiment [1] is 27.8 µM; in experiment [2], 6.45 µM; in experiment [3], 7.62 µM.

With `c1ccc(-c2cccc(CNc3nc(-c4ccccn4)nnc3-c3ccccc3)c2)cc1`, the EC50 in experiment [1] amounted to 2.49 µM; in experiment [2] it was 2.57 µM; in experiment [3], 0.5 µM.

Regarding `c1ccc(-c2ccc(CNc3nc(-c4ccccn4)nnc3-c3ccccc3)cc2)cc1`, the EC50 in experiment [1] is 1.12 µM; in experiment [4] it was 15.6 µM; in experiment [5], 5.01 µM; in experiment [2], 1.63 µM; in experiment [3] it was 1.4 µM.

Consider `O=C(NCCCCO)c1cc(-c2ccccc2)on1`, for which the concentration giving a half-maximal response (EC50) in experiment [1] is 22 µM; in experiment [2], 7.57 µM; in experiment [3], 3.04 µM.

Turning to `O=C(NCC1CC1)c1cc(-c2ccccc2)on1`, the figures for the EC50 in experiment [1], in experiment [2] and in experiment [3] were 24.9 µM, 21.5 µM and 16.6 µM, respectively.

Consider `c1ccc(-c2nnc(-c3ccccn3)nc2NCC2CC2)cc1`, for which the EC50 in experiment [1] came out at 12.7 µM; in experiment [2] it was 6.21 µM; in experiment [3] it was 4.27 µM.

For the molecule `c1ccc(-c2nnc(-c3ccccn3)nc2NCC2CCCCC2)cc1`, the EC50 in experiment [1] was found to be 4.74 µM; in experiment [2] it was 3.45 µM; in experiment [3], 2.46 µM.

Turning to `CC(C)(C)CCNc1nc(-c2ccccn2)nnc1-c1ccccc1`, the EC50 worked out at 2.97 µM in experiment [1], 2.48 µM in experiment [2] and 3.82 µM in experiment [3].

Regarding `OCCCNc1nc(-c2ccccn2)nnc1-c1ccccc1`, the results for the EC50 in experiment [1], in experiment [2] and in experiment [3] were 25 µM, 10.6 µM and 10.5 µM, respectively.

Take `c1ccc(-c2nnc(-c3ccccn3)nc2NCCN2CCOCC2)cc1`: the values for the EC50 in experiment [1], in experiment [2] and in experiment [3] were 20.8 µM, 10 µM and 9.08 µM, respectively.

On to `c1ccc(-c2nnc(-c3ccccn3)nc2NCCCN2CCOCC2)cc1`, for which the EC50 amounted to 14.2 µM in experiment [1], 8.12 µM in experiment [2] and 6.27 µM in experiment [3].

Turning to `OCC1CCN(c2nc(-c3ccccn3)nnc2-c2ccccc2)CC1`, the EC50 was 22.9 µM in experiment [1], 12.1 µM in experiment [2] and 11.6 µM in experiment [3].

In the case of `CN1CCN(c2nc(-c3ccccn3)nnc2-c2ccccc2)CC1`, the values for the 50% effective concentration (EC50) in experiment [1], in experiment [2] and in experiment [3] were 21.9 µM, 8.69 µM and 10.2 µM, respectively.

With `O=C(NCCCN1CCOCC1)c1cc(-c2ccccc2)on1`, the values for the EC50 in experiment [1], in experiment [2] and in experiment [3] were 23.9 µM, 28 µM and 20 µM, respectively.

In the case of `CCCCNC(=O)c1cc(-c2ccc(F)cc2)on1`, a half-maximal response in experiment [1] (EC50) required 8.85 µM.

As for `C=CCNc1nc(-c2ccccn2)nnc1-c1ccccc1` [6-phenyl-N-prop-2-enyl-3-(2-pyridinyl)-1,2,4-triazin-5-amine], the EC50 in experiment [1] was found to be 7.13 µM; in experiment [2], 6.15 µM; in experiment [3], 4.62 µM.

In the case of `c1ccc(CNc2nc(-c3ccccn3)nnc2-c2ccccc2)cc1` [GNF-Pf-100], the EC50 in experiment [1] was found to be 7.74 µM; in experiment [2], 4.48 µM; in experiment [3], 4.8 µM.

On to `CN(C)c1nc(-c2ccccn2)nnc1-c1ccccc1` [MLS000541553], for which the EC50 in experiment [1] was 7.46 µM; in experiment [2], 9.06 µM; in experiment [3], 9.82 µM.

Take `O=C(NCCCn1ccnc1)c1cc(-c2ccccc2)on1` [MLS000708948]: the results for the EC50 in experiment [1], in experiment [2] and in experiment [3] were 8.67 µM, 15.8 µM and 7.72 µM, respectively.

`CC(=O)N(O)CCCCCNC(=O)CCC(=O)N(O)CCCCCNC(=O)CCC(=O)N(O)CCCCCN` [N-[5-[[4-[5-[acetyl(hydroxy)amino]pentylamino]-4-oxobutanoyl]-hydroxyamino]pentyl]-N''-(5-aminopentyl)-N''-hydroxybutanediamide;methanesulfonic acid]: the EC50 in experiment [1] was found to be 17.8 µM.
